US9145411B2, “Substituted amino-pyrimidine derivatives” (Asana Biosciences, LLC, priority 2012, dated 2015)
pIC50: −log10 of the molar value.

How the values were obtained:
pAkt(T308) = test: In-cell Western assay, pAkt(T308), PC3 cells; assay type: cell-based; details: Homo sapiens, PC-3, 2 hours incubation
Experimental: (§1) Cells from human prostate cancer cell line PC3 (American Type Culture Collection (ATCC), Manassas, Va. 20108 USA) were seeded at an optimal density of 22,000 cell/well in 96-well plates containing Ham's F12K medium (90 μL) and incubated overnight. The compound dilutions were carried out in 100% DMSO followed by a dilution in the medium. Test compounds were added in serial dilutions to the wells and incubated for 2 hours. The cells were washed and fixed with 4% paraformaldehyde. After incubation at room temperature for 1 hour in the dark, blocking was done for 2 hours at room temperature. Primary antibodies for pAkt(S473) ([…] phosphorylated at serine 473), pAkt(T308) (Akt phosphorylated at threonine 308) and for pS6RP (S235/236) (phosphorylated at serine 235/236) (commercially available from Cell Signaling Technology®, whose protocol was followed for the in-cell western assay, were diluted to the required concentration and added to the corresponding wells followed by overnight incubation at 4° C. Eu-labeled rabbit (PE) (Perkin-Elmer USA catalog #AD0106) secondary antibody was added and incubated for 2 hours at room temperature. Delfia® enhancement solution (cat #1244-105, Perkin Elmer USA) was subsequently added to the plate before taking the reading at 615 nm with excitation wavelength of 340 nm, after which 0.5 μg/mL of Hoechst® 33258 dye (Catalog #86140-5, Sigma) was added to the plate and fluorescence emission was read at 460 nm with 355 nm excitation, to evaluate the correction factor. IC50 values were calculated using a sigmoidal dose-response curve fit in GraphPad Prism® v5 software.

PC3 cells = test: XTT assay for cell viability, PC3 cells; assay type: cell-based; details: Homo sapiens, PC-3; PC3 cell proliferation, 96 hours
Outline: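 Log-phase PC3 cells (1000/well) were seeded for 24 h, then exposed to serially diluted compounds (DMSO dilutions) for 96 h. Viability was measured by XTT dye conversion at 37 °C, with absorbance read at 465 nm. EC50 was obtained from a sigmoidal dose-response fit.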

pAkt(S473) = test: In-cell Western assay, pAkt(S473), PC3 cells; assay type: cell-based; details: Homo sapiens, PC-3, 2 hours incubation
Experimental: as §1

pS6RP (S235/236) = test: In-cell Western assay, pS6RP (S235/236), PC3 cells; assay type: cell-based; details: Homo sapiens, PC-3, 2 hours incubation
Experimental: as §1

mTOR kinase = molecular target: T1, mTOR kinase (Homo sapiens, UniProt P42345); test: mTOR kinase TR-FRET assay; assay type: biochemical; details: 20 μM ATP
T1 construct: purchased Millipore, USA
T1 sequence (P42345 1362-2549 limits assumed): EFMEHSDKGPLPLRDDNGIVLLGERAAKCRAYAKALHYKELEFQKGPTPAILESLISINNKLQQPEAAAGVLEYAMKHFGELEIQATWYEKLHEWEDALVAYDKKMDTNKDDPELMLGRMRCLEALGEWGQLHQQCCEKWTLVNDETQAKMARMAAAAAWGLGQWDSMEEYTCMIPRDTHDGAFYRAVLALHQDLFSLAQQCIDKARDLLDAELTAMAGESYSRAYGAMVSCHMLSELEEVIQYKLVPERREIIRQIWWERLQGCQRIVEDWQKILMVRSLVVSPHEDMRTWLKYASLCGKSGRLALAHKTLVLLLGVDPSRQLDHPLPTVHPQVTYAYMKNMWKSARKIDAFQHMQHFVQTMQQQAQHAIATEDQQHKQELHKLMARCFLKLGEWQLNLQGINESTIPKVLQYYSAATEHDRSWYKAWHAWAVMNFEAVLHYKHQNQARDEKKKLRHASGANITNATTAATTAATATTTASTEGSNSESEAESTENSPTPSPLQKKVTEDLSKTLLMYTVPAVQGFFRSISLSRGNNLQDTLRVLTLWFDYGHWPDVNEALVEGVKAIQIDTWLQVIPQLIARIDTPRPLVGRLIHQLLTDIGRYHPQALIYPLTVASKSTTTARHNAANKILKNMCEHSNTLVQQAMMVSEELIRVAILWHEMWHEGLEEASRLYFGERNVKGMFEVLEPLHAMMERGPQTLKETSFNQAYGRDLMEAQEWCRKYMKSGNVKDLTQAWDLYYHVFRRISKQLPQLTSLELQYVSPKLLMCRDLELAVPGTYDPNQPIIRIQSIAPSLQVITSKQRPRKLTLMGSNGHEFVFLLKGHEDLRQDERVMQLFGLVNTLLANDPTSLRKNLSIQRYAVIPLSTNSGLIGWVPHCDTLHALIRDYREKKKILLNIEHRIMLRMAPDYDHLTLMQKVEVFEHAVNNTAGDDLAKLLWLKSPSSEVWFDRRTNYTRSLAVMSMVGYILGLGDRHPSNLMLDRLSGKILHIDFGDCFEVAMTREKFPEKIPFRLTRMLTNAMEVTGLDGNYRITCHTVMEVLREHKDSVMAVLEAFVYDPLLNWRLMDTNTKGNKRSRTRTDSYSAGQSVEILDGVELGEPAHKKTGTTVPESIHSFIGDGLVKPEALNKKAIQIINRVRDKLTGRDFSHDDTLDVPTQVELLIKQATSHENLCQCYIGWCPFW
Outline: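 Test compounds were pre-incubated 60 min with mTOR (5 ng), then ULight-p70 S6K (Thr389) peptide (50 nM) and ATP (20 μM) were added in HEPES 50 mM pH 7.5, EGTA, MnCl2 3 mM. After 60 min at room temperature, EDTA stop and Eu-anti-phospho antibody TR-FRET (665/615 nm) gave IC50 from sigmoidal variable-slope fits.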

PI3Kα (wild-type) = molecular target: T2, PI3Kα (wild-type) (Homo sapiens, UniProt P42336); test: PI3 Kinase TR-FRET assay, PI3Kα (wild-type); assay type: biochemical; details: wild-type P110/P85α, 10 μM ATP
T2 construct: made in house; host or cells: SF9 insect cells
T2 sequence (P42336 whole entry, species assumed): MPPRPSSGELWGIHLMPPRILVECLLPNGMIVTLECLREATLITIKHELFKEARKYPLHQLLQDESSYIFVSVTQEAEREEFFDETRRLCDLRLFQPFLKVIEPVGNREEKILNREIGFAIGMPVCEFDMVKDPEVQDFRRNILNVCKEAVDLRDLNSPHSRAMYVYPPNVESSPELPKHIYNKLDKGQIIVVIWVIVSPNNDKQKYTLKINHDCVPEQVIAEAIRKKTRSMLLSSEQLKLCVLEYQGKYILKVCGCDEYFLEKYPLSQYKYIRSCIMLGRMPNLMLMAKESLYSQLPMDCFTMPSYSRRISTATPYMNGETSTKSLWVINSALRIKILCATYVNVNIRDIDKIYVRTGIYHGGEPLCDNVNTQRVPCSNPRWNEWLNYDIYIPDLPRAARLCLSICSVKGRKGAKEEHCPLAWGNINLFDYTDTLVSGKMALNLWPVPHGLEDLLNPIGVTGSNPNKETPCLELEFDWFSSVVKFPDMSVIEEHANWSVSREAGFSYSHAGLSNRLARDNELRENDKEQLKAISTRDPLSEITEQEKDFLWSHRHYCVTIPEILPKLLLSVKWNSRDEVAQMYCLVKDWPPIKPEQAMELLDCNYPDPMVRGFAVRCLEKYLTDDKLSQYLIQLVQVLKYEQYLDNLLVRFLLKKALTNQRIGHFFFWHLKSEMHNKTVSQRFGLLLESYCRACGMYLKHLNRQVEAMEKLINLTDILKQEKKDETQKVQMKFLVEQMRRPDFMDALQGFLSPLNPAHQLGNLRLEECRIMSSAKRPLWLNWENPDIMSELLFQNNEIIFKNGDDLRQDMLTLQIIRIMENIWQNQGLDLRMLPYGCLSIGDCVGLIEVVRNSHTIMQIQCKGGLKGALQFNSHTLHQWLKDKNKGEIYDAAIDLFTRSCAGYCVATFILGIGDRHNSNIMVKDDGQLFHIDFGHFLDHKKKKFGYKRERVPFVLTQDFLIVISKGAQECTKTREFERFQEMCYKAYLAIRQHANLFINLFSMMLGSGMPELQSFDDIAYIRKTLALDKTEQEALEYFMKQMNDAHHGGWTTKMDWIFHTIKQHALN
T2 sequence (P27986 whole entry partner, species assumed): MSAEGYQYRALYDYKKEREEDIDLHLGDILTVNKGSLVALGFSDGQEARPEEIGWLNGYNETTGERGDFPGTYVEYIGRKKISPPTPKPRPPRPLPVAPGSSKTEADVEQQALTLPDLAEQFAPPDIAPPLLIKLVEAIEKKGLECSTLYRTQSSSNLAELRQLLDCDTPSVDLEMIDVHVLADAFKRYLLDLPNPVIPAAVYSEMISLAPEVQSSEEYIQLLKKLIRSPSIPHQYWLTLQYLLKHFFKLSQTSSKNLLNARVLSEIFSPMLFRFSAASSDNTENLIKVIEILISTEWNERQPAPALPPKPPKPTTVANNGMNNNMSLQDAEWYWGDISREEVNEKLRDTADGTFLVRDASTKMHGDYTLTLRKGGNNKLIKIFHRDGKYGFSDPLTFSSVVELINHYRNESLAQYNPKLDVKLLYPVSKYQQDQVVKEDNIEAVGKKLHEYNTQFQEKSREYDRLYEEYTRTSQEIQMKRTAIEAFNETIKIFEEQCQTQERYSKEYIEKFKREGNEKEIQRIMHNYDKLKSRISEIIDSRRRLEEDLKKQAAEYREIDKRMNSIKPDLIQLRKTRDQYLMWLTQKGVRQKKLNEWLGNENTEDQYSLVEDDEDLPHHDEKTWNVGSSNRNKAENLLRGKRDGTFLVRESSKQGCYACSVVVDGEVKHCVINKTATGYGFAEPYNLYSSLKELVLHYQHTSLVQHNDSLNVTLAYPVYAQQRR
Outline: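 Sf9-expressed, Ni-purified p110/p85α (5 ng) with PIP2 was preincubated with compound for 60 min at room temperature in buffer with 40 mM MgCl2 and 5 mM DTT. The reaction ran 30 min at room temperature with 10 μM PIP2 and 10 μM ATP. The TR-FRET 665/615 nm ratio was used to derive IC50 from dose-response curves.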

PI3Kα mutation H1047R = PI3Kα mutation H1047R (Homo sapiens, UniProt P42336, H1047R); test: PI3 Kinase TR-FRET assay, PI3Kα mutation H1047R; assay type: biochemical; details: read-out: inhibition of PI3Kα mutation H1047R, IC50
PI3Kα mutation H1047R, sequence (P42336 whole entry H1047R, the tested form may be a part, canonical isoform): as the sequence (P42336 whole entry, species assumed) above, with H1047R counted along it
PI3Kα mutation H1047R, sequence (P27986 whole entry partner, the tested form may be a part, canonical isoform): as the sequence (P27986 whole entry partner, species assumed) above
Experimental: (§2) The ability of compounds of the invention to inhibit PI3K activity was determined in a homogeneous TR-FRET assay using a PI3K assay kit (Millipore, USA; cat #33-016) according to manufacturer's instructions. PI3-Kinases (isoforms α, β, γ and δ) catalyze the phosphorylation of phosphatidylinositol, PIP2 to PIP3 in the presence of ATP and Mg^2+. The PIP3 product is detected by displacement of biotin-PIP3 from an energy transfer complex consisting of Europium labeled anti-GST monoclonal antibody, a GST-tagged PH domain, biotinylated PIP3 and Streptavidin-APC. Excitation of Europium in the complex results in an energy transfer to the APC and a fluorescence emission at 665 nm. The PIP3 product displaces biotin-PIP3 from the complex resulting in a loss of energy transfer and thus a decrease in signal.
(§3) To test for the ability of compounds to inhibit the activity of PI3Kα (wild-type), exemplary compounds of formula (I) were dissolved in DMSO and directly distributed into 384-well plates at a volume of 0.5 μL. 14.5 μL of P110/P85α/PIP2 mixture in buffer (obtained from the Millipore kit) containing MgCl2 (40 mM) and DTT (5 mM) was added to compound wells and incubated for 60 minutes at room temperature. P110/P85α was expressed in SF9 insect cells and purified nickel column extraction. Five ng of wild-type P110/P85α was used in the assay. The kinase reaction was started by the addition of ATP. The assay concentrations of both PIP2 and ATP were 10 μM. The reaction mixture was incubated for 30 minutes at room temperature and was terminated by the addition of stop mix and detection mix. Fluorescence was measured at 615 and 665 nm upon excitation at 340 nm in a Victor™ V5 fluorometer (Perkin Elmer, USA). The fluorescence emission ratio at 665 to 615 nm, proportional to the kinase activity, was plotted against the compound concentration to generate dose-response curves and IC50 values were determined using GraphPad Prism® 5 software.
(§4) The activity of PI3Kα mutations H1047R and E545K were assayed in a similar manner to the assay protocol described above for PI3Kα (wild type). The compounds of formula (I) caused inhibition of PI3Kα mutations H1047R (a mutation associated with breast and gastric cancers) and E545K (a mutation associated with colorectal tumors, glioblastomas, gastric cancers, breast cancers, and lung cancers). For example, each of the compounds of Example 3, 7, 21, 47, 48 and 49 caused inhibition of each of the PI3Kα mutations H1047R and E545K with IC50 values<50 nM.

PI3Kα mutation E545K = PI3Kα mutation E545K (Homo sapiens, UniProt P42336, E545K); test: PI3 Kinase TR-FRET assay, PI3Kα mutation E545K; assay type: biochemical; details: read-out: inhibition of PI3Kα mutation E545K, IC50
PI3Kα mutation E545K, sequence (P42336 whole entry E545K): as the sequence (P42336 whole entry, species assumed) above, with E545K counted along it
PI3Kα mutation E545K, sequence (P27986 whole entry partner): as the sequence (P27986 whole entry partner, species assumed) above
Experimental: as §2, §3, §4

PI3 kinase isoform β = PI3 kinase isoform β (Homo sapiens, UniProt P42338); test: PI3 Kinase TR-FRET assay, isoform β; assay type: biochemical; details: read-out: inhibition of PI3 kinase isoform β, IC50
Experimental: as §2
To test for the ability of compounds to inhibit the activity of PI3Kα (wild-type), exemplary compounds of formula (I) were dissolved in DMSO and directly distributed into 384-well plates at a volume of 0.5 μL. […] Fluorescence was measured at 615 and 665 nm upon excitation at 340 nm in a Victor™ V5 fluorometer (Perkin Elmer, USA). The fluorescence emission ratio at 665 to 615 nm, proportional to the kinase activity, was plotted against the compound concentration to generate dose-response curves and IC50 values were determined using GraphPad Prism® 5 software. […]

PI3 kinase isoform γ = PI3 kinase isoform γ (Homo sapiens, UniProt P48736); test: PI3 Kinase TR-FRET assay, isoform γ; assay type: biochemical; details: read-out: inhibition of PI3 kinase isoform γ, IC50
PI3 kinase isoform γ, sequence (P48736 whole entry, canonical isoform): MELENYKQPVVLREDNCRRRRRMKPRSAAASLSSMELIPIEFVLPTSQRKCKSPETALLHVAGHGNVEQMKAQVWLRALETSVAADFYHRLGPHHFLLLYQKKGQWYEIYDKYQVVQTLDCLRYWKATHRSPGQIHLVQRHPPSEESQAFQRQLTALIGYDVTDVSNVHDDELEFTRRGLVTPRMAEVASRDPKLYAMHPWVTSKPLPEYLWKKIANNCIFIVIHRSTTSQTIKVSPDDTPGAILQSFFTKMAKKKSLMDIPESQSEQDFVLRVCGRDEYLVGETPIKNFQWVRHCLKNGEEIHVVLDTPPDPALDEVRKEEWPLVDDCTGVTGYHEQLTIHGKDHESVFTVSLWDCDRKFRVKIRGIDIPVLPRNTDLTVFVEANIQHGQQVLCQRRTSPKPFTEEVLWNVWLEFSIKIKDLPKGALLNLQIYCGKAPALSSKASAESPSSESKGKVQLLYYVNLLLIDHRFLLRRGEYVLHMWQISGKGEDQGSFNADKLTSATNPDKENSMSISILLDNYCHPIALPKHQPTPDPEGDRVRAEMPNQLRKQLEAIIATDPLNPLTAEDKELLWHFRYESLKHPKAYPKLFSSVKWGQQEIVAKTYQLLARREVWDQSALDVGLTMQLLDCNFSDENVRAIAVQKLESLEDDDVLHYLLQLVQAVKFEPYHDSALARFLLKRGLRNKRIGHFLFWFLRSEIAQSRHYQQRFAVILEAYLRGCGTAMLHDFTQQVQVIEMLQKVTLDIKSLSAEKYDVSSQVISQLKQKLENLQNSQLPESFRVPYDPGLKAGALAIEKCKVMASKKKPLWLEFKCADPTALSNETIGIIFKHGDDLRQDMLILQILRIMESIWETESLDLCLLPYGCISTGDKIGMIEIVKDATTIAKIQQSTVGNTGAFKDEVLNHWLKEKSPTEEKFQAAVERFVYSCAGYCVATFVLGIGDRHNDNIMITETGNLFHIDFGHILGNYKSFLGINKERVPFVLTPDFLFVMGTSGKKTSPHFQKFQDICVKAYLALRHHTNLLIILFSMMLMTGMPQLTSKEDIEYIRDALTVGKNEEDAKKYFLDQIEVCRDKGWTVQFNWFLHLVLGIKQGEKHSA
Experimental: as §2, §3
(§5) The activity of PI3 kinase isoforms β, γ and δ were assayed in a similar manner to the assay protocol described above for PI3Kα, by substituting the appropriate p110/p85 isoform for the p110α/p85α. Compounds of formula (I) caused inhibition of PI3 kinase isoforms β, γ and δ as determined by these assays. For example, the compounds of Examples 3 and 21 each caused inhibition of PI3 kinase isoform β with IC50 values<500 nM. The compounds of Examples 3, 7, 21, 47, 48 and 49 each caused inhibition of PI3 kinase isoform γ with IC50 values<500 nM. The compounds of Example 3, 7, 47, 48, and 49 caused inhibition of PI3 kinase isoform δ with IC50 values<1 μM.

PI3 kinase isoform δ = PI3 kinase isoform δ (Homo sapiens, UniProt O00329); test: PI3 Kinase TR-FRET assay, isoform δ; assay type: biochemical; details: read-out: inhibition of PI3 kinase isoform δ, IC50
Experimental: as §2, §3, §5

U87MG tumor cells = test: In vivo efficacy study (tumor growth suppression), U87MG xenograft; details: U87MG xenograft mice, after 12 to 14 days of dosing, 50 mg/kg qd po

Row | SMILES | pIC50 (pAkt(T308)) | pIC50 (PC3 cells) | pIC50 (pAkt(S473)) | pIC50 (pS6RP (S235/236)) | pIC50 (mTOR kinase) | pIC50 (PI3Kα (wild-type)) | pIC50 (PI3Kα mutation H1047R) | pIC50 (PI3Kα mutation E545K) | pIC50 (PI3 kinase isoform β) | pIC50 (PI3 kinase isoform γ) | pIC50 (PI3 kinase isoform δ) | tumor growth inhibition relative to vehicle control group (U87MG tumor cells)
1 | Nc1ncc(-c2nc(N3CCOCC3)c3ncc(-c4cccnc4F)cc3n2)cn1 [Example 24, 5-(7-(2-fluoropyridin-3-yl)-4-morpholino-pyrido[3,2-d]pyrimidin-2-yl)pyrimidin-2-amine] | 6.30 to 7.00 | 6.30 to 7.00 | 5.30 to 6.30 | 6.30 to 7.00 | 6.70 to 7.30 | > 7.30 |  |  |  |  |  | 
2 | CS(=O)(=O)Nc1cccc(-c2cnc3c(N4CCOCC4)nc(-c4cnc(N)nc4)nc3c2)c1 [Example 21, N-(3-(2-(2-amino-pyrimidin-5-yl)-4-morpholinopyrido[3,2-d]-pyrimidin-7-yl)phenyl)-methanesulfonamide] | 6.30 to 7.00 | > 7.00 | 6.30 to 7.00 |  | > 7.30 | > 7.30 | > 7.30 | > 7.30 | > 6.30 | > 6.30 |  | 
3 | Cn1cc(-c2cnc3c(N4CCOCC4)nc(-c4cnc(N)nc4)nc3c2)cn1 [Example 22, 5-(7-(1-methyl-1H-pyrazol-4-yl)-4-morpholinopyrido[3,2-d]-pyrimidin-2-yl)pyrimidin-2-amine] | 6.30 to 7.00 | > 7.00 | 5.30 to 6.30 | 6.30 to 7.00 | > 7.30 | > 7.30 |  |  |  |  |  | 
4 | C[C@H](O)C(=O)Nc1cccc(-c2cnc3c(N4CCOCC4)nc(-c4cnc(N)nc4)nc3c2)c1 [Example 47, (S)-N-(3-(2-(2-amino-pyrimidin-5-yl)-4-morpholinopyrido[3,2-d]pyrimidin-7-yl)phenyl)-2-hydroxypropanamide] | > 7.00 | 6.30 to 7.00 |  |  | > 7.30 | > 7.30 | > 7.30 | > 7.30 |  | > 6.30 | > 6.00 | 
5 | CC(=O)OC(C)OC(=O)N(C(C)=O)c1cccc(-c2cnc3c(N4CCOCC4)nc(-c4cnc(N)nc4)nc3c2)c1 (stereo not drawn) [Example 120, 1-((acetyl(3-(2-(2-amino-pyrimidin-5-yl)-4-morpholinopyrido[3,2-d]-pyrimidin-7-yl)-phenyl)carbamoyl)oxy) ethyl acetate] |  |  |  |  |  |  |  |  |  |  |  | more than 70%

Continued, in another order:

Row | pIC50 (pAkt(T308)) | pIC50 (PC3 cells) | pIC50 (pAkt(S473)) | pIC50 (pS6RP (S235/236)) | pIC50 (mTOR kinase) | pIC50 (PI3Kα (wild-type)) | pIC50 (PI3Kα mutation H1047R) | pIC50 (PI3Kα mutation E545K) | pIC50 (PI3 kinase isoform β) | pIC50 (PI3 kinase isoform γ) | pIC50 (PI3 kinase isoform δ) | SMILES | tumor growth inhibition relative to vehicle control group (U87MG tumor cells)
6 | > 7.00 | > 7.00 | 6.30 to 7.00 | > 7.00 | > 7.30 | > 7.30 |  |  |  |  |  | CC(=O)Nc1cc(-c2cnc3c(N4CCOCC4)nc(-c4cnc(N)nc4)nc3c2)ccc1F [Example 119, N-(5-(2-(2-amino-pyrimidin-5-yl)-4-morpholinopyrido[3,2-d]-pyrimidin-7-yl)-2-fluorophenyl)acetamide] | 
7 | 6.30 to 7.00 | > 7.00 | > 7.00 | > 7.00 | > 7.30 | > 7.30 | > 7.30 | > 7.30 |  | > 6.30 | > 6.00 | CC(C)(C#N)C(=O)Nc1cccc(-c2cnc3c(N4CCOCC4)nc(-c4cnc(N)nc4)nc3c2)c1 [Example 49, N-(3-(2-(2-amino-pyrimidin-5-yl)-4-morpholinopyrido[3,2-d]pyrimidin-7-yl)phenyl)-2-cyano-2-methylpropanamide] | 
8 | 6.30 to 7.00 | 6.30 to 7.00 |  |  | > 7.30 | > 7.30 | > 7.30 | > 7.30 |  | > 6.30 | > 6.00 | CC(C)(O)C(=O)Nc1cccc(-c2cnc3c(N4CCOCC4)nc(-c4cnc(N)nc4)nc3c2)c1 [Example 48, N-(3-(2-(2-amino-pyrimidin-5-yl)-4-morpholinopyrido[3,2-d]pyrimidin-7-yl)phenyl)-2-hydroxy-2-methylpropanamide] | 
9 | > 7.00 | > 7.00 | > 7.00 | > 7.00 | > 7.30 | > 7.30 |  |  |  |  |  | CC(=O)Nc1cccc(-c2cnc3c(N4CCOCC4)nc(-c4cnc(N)nc4)nc3c2)c1F [Example 52, N-(3-(2-(2-amino-pyrimidin-5-yl)-4-morpholinopyrido[3,2-d]pyrimidin-7-yl)-2-fluorophenyl)acetamide] | 
